PubChem BioAssay (NCI)
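Dose response: 5 concentrations. Exposure: 48 h. Format: 96-well plates. Endpoint: linear interpolation; highest concentration if not reached. GI50 is the concentration that inhibits growth by half. TGI: total growth inhibition.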

Experiments:
Experiment in all cases: NCI anticancer screen, dose series, 48 h
786-0 renal = system: 786-0 renal
A498 renal = system: A498 renal
A549 NSCLC = system: A549 NSCLC
ACHN renal = system: ACHN renal
BT-549 breast = system: BT-549 breast
CAKI-1 renal = system: CAKI-1 renal
CCRF-CEM leukemia = system: CCRF-CEM leukemia
COLO 205 colon = system: COLO 205 colon
DU-145 prostate = system: DU-145 prostate
EKVX NSCLC = system: EKVX NSCLC
HCC-2998 colon = system: HCC-2998 colon
HCT-116 colon = system: HCT-116 colon
HCT-15 colon = system: HCT-15 colon
HL-60(TB) leukemia = system: HL-60(TB) leukemia
HOP-62 NSCLC = system: HOP-62 NSCLC
HOP-92 NSCLC = system: HOP-92 NSCLC
HS 578T breast = system: HS 578T breast
HT29 colon = system: HT29 colon
IGROV1 ovarian = system: IGROV1 ovarian
K-562 leukemia = system: K-562 leukemia
KM12 colon = system: KM12 colon
LOX IMVI melanoma = system: LOX IMVI melanoma
M14 melanoma = system: M14 melanoma
MALME-3M melanoma = system: MALME-3M melanoma
MCF7 breast = system: MCF7 breast
MDA-MB-231 breast = system: MDA-MB-231 breast
MDA-MB-435 = system: MDA-MB-435
MOLT-4 leukemia = system: MOLT-4 leukemia
NCI-H23 lung = system: NCI-H23 lung
NCI-H460 lung = system: NCI-H460 lung
NCI-H522 lung = system: NCI-H522 lung
NCI/ADR-RES ovarian = system: NCI/ADR-RES ovarian
OVCAR-3 ovarian = system: OVCAR-3 ovarian
OVCAR-4 ovarian = system: OVCAR-4 ovarian
OVCAR-5 ovarian = system: OVCAR-5 ovarian
OVCAR-8 ovarian = system: OVCAR-8 ovarian
PC-3 prostate = system: PC-3 prostate
RPMI-8226 leukemia = system: RPMI-8226 leukemia
RXF 393 renal = system: RXF 393 renal
SF-268 CNS = system: SF-268 CNS
SF-295 CNS = system: SF-295 CNS
SF-539 CNS = system: SF-539 CNS
SK-MEL-2 melanoma = system: SK-MEL-2 melanoma
SK-MEL-28 melanoma = system: SK-MEL-28 melanoma
SK-MEL-5 melanoma = system: SK-MEL-5 melanoma
SK-OV-3 ovarian = system: SK-OV-3 ovarian
SN12C renal = system: SN12C renal
SNB-19 CNS = system: SNB-19 CNS
SR leukemia = system: SR leukemia
SW-620 colon = system: SW-620 colon
T-47D breast = system: T-47D breast
TK-10 renal = system: TK-10 renal
U251 CNS = system: U251 CNS
UACC-257 melanoma = system: UACC-257 melanoma
UACC-62 melanoma = system: UACC-62 melanoma
UO-31 renal = system: UO-31 renal

For `O=C1Nc2ccccc2C1(c1c[nH]c2ccccc12)c1c[nH]c2ccccc12`, the GI50 (786-0 renal) was 2010 nM, the TGI (786-0 renal) was 4.11 µM and the GI50 (A498 renal) was 1810 nM. The TGI (A498 renal) was 3.63 µM, the GI50 (A549 NSCLC) was 2180 nM and the TGI (A549 NSCLC) was 5.31 µM. The GI50 (ACHN renal) was 1820 nM, the TGI (ACHN renal) was 3.58 µM and the GI50 (BT-549 breast) was 2060 nM. It also gave a TGI (BT-549 breast) of 4.68 µM, a GI50 (CAKI-1 renal) of 1850 nM and a TGI (CAKI-1 renal) of 4.37 µM. It also gave a GI50 (CCRF-CEM leukemia) of 4.43 µM, a TGI (CCRF-CEM leukemia) of 45.8 µM and a GI50 (COLO 205 colon) of 1930 nM. For the same compound, the TGI (COLO 205 colon) was 3.86 µM, the GI50 (DU-145 prostate) was 2090 nM and the TGI (DU-145 prostate) was 4.2 µM. The GI50 (EKVX NSCLC) was 1700 nM, the TGI (EKVX NSCLC) was 3.84 µM and the GI50 (HCC-2998 colon) was 1820 nM. It also gave a TGI (HCC-2998 colon) of 3.75 µM, a GI50 (HCT-116 colon) of 2480 nM and a TGI (HCT-116 colon) of 6.29 µM. The GI50 (HCT-15 colon) was 2570 nM, the TGI (HCT-15 colon) was 7.69 µM and the GI50 (HL-60(TB) leukemia) was 3.72 µM. For the same compound, the TGI (HL-60(TB) leukemia) was 37.6 µM, the GI50 (HOP-62 NSCLC) was 1930 nM and the TGI (HOP-62 NSCLC) was 4.95 µM. It also gave a GI50 (HOP-92 NSCLC) of 1870 nM, a TGI (HOP-92 NSCLC) of 4.95 µM and a GI50 (HS 578T breast) of 2050 nM. For the same compound, the TGI (HS 578T breast) was 5.16 µM, the GI50 (HT29 colon) was 3.23 µM and the TGI (HT29 colon) was 11.4 µM. The GI50 (IGROV1 ovarian) was 2040 nM, the TGI (IGROV1 ovarian) was 5.09 µM and the GI50 (K-562 leukemia) was 3.94 µM. The TGI (K-562 leukemia) was greater than 100 µM, the GI50 (KM12 colon) was 2300 nM and the TGI (KM12 colon) was 5.96 µM. For the same compound, the GI50 (LOX IMVI melanoma) was 1700 nM, the TGI (LOX IMVI melanoma) was 3.32 µM and the GI50 (M14 melanoma) was 2390 nM. The TGI (M14 melanoma) was 7.17 µM, the GI50 (MALME-3M melanoma) was 2470 nM and the TGI (MALME-3M melanoma) was 6.93 µM. It also gave a GI50 (MCF7 breast) of 2060 nM, a TGI (MCF7 breast) of 4.74 µM and a GI50 (MDA-MB-231 breast) of 2300 nM. It also gave a TGI (MDA-MB-231 breast) of 5.96 µM, a GI50 (MDA-MB-435) of 3.34 µM and a TGI (MDA-MB-435) of 11.7 µM. For the same compound, the GI50 (MOLT-4 leukemia) was 3.77 µM, the TGI (MOLT-4 leukemia) was 28.9 µM and the GI50 (NCI-H23 lung) was 2080 nM. The TGI (NCI-H23 lung) was 4.48 µM, the GI50 (NCI-H460 lung) was 2840 nM and the TGI (NCI-H460 lung) was 8.21 µM. The GI50 (NCI-H522 lung) was 2010 nM, the TGI (NCI-H522 lung) was 4.71 µM and the GI50 (NCI/ADR-RES ovarian) was 2150 nM. The TGI (NCI/ADR-RES ovarian) was 5.03 µM, the GI50 (OVCAR-3 ovarian) was 2140 nM and the TGI (OVCAR-3 ovarian) was 4.84 µM. The GI50 (OVCAR-4 ovarian) was 2480 nM, the TGI (OVCAR-4 ovarian) was 7.45 µM and the GI50 (OVCAR-5 ovarian) was 2520 nM. It also gave a TGI (OVCAR-5 ovarian) of 7.6 µM, a GI50 (OVCAR-8 ovarian) of 2150 nM and a TGI (OVCAR-8 ovarian) of 5.18 µM. The GI50 (PC-3 prostate) was 2050 nM, the TGI (PC-3 prostate) was 5.75 µM and the GI50 (RPMI-8226 leukemia) was 4.25 µM. For the same compound, the TGI (RPMI-8226 leukemia) was 38.5 µM, the GI50 (RXF 393 renal) was 1940 nM and the TGI (RXF 393 renal) was 3.76 µM. The GI50 (SF-268 CNS) was 2800 nM, the TGI (SF-268 CNS) was 13.9 µM and the GI50 (SF-295 CNS) was 2020 nM. It also gave a TGI (SF-295 CNS) of 4.7 µM, a GI50 (SF-539 CNS) of 2070 nM and a TGI (SF-539 CNS) of 4.31 µM. It also gave a GI50 (SK-MEL-2 melanoma) of 2080 nM, a TGI (SK-MEL-2 melanoma) of 4.51 µM and a GI50 (SK-MEL-28 melanoma) of 5.7 µM. The TGI (SK-MEL-28 melanoma) was 20 µM, the GI50 (SK-MEL-5 melanoma) was 2180 nM and the TGI (SK-MEL-5 melanoma) was 4.81 µM. It also gave a GI50 (SK-OV-3 ovarian) of 2720 nM, a TGI (SK-OV-3 ovarian) of 7.74 µM and a GI50 (SN12C renal) of 1890 nM. The TGI (SN12C renal) was 4.29 µM, the GI50 (SNB-19 CNS) was 2730 nM and the TGI (SNB-19 CNS) was 8.35 µM. The GI50 (SR leukemia) was 4 µM, the TGI (SR leukemia) was greater than 100 µM and the GI50 (SW-620 colon) was 3.22 µM. The TGI (SW-620 colon) was 13.1 µM, the GI50 (T-47D breast) was 1990 nM and the TGI (T-47D breast) was 4.69 µM. It also gave a GI50 (TK-10 renal) of 2310 nM, a TGI (TK-10 renal) of 5.41 µM and a GI50 (U251 CNS) of 2690 nM. For the same compound, the TGI (U251 CNS) was 7.49 µM, the GI50 (UACC-257 melanoma) was 3.67 µM and the TGI (UACC-257 melanoma) was 16.6 µM. For the same compound, the GI50 (UACC-62 melanoma) was 1960 nM, the TGI (UACC-62 melanoma) was 5.09 µM and the GI50 (UO-31 renal) was 1180 nM. The TGI (UO-31 renal) was 3.04 µM.
